The values that follow come from ChEMBL document CHEMBL1201862, “PubChem BioAssay data set” (2004).

Structures are written as SMILES.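 These data come from cells grown in 96-well plates and exposed to compound for 48 hours at five concentrations. Here, GI50 denotes the concentration required for 50% inhibition of growth.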 Calls of active or inactive are those of the source. Rule as the data show it: active = GI50 up to about 1.1 µM and inactive = higher.

Among the test systems are BT-549; CCRF-CEM; HL-60; HOP-92; IGROV-1; KM12; LOX IMVI; MDA-MB-231; OVCAR-3; OVCAR-5; PC-3; SF-268; SK-MEL-5; SK-OV-3; SNB-19; SNB-75; SR; T47D; MCF7; UACC-62.
Assay in all cases: DTP human tumour cell line panel, 48 h

In the case of `CN1C2CCC1CC(CC(=O)NC(c1ccc(F)cc1)c1ccc(F)cc1)C2` (stereo not given), the GI50 was > 100 µM (inactive) with BT-549; 2.2 µM (inactive) with CCRF-CEM; 0.242 µM (active) in the assay with HL-60; 60 µM (inactive) in the assay with HOP-92; > 100 µM (inactive) in the assay with IGROV-1; > 100 µM (inactive) with KM12. Also, the GI50 was 80 µM (inactive) in the assay on LOX IMVI; > 100 µM (inactive) in the assay on MDA-MB-231; > 100 µM (inactive) in the assay on OVCAR-3; > 100 µM (inactive) with OVCAR-5; > 100 µM (inactive) with PC-3; 98.4 µM (inactive) in the assay on SF-268. The GI50 was 20.8 µM (inactive) with SK-MEL-5; > 100 µM (inactive) in the assay with SK-OV-3; > 100 µM (inactive) in the assay with SNB-19; > 100 µM (inactive) in the assay with SNB-75; 30.2 µM (inactive) in the assay on SR; > 100 µM (inactive) with T47D.
Take `CC1OC(OC2C(O[C@H]3CC[C@@]4(C)[C@@H](CC[C@@H]5[C@@H]4CC[C@]4(C)[C@@H]6[C@H](C[C@@H]54)O[C@]4(CC[C@@H](C)CO4)[C@H]6C)C3)OC(CO)C(OC3OC(CO)C(O)C(OC4OCC(O)C(O)C4O)C3OC3OCC(O)C(O)C3O)C2O)C(O)C(O)C1O` (stereo not given in full): the 50% growth inhibitory concentration (GI50) is 1.08 µM (active) in the assay on BT-549; 0.224 µM (active) with CCRF-CEM; 0.282 µM (active) in the assay on HL-60; 1.67 µM (inactive) in the assay on HOP-92; 1.01 µM (active) in the assay with IGROV-1; 0.518 µM (active) in the assay with KM12. The GI50 in the assay with LOX IMVI was 0.514 µM (active); in the assay with MCF7, 0.342 µM (active); with MDA-MB-231, 2.03 µM (inactive); in the assay on OVCAR-3 it was 1.74 µM (inactive); in the assay with OVCAR-5, 1.16 µM (inactive); in the assay with PC-3, 0.64 µM (active). In addition, the GI50 in the assay with SF-268 is 1.69 µM (inactive); with SK-MEL-5 it was 1.12 µM (inactive); in the assay with SK-OV-3, 1.9 µM (inactive); in the assay with SNB-19, 0.995 µM (active); in the assay on SNB-75, 1.45 µM (inactive); in the assay with T47D it was 1.8 µM (inactive). Also, in the assay on UACC-62, the 50% growth inhibitory concentration (GI50) is 0.746 µM (active).
Take `O=C(O)c1ccccc1C1c2ccccc2Oc2ccccc21`: the GI50 in the assay with BT-549 was 72.3 µM (inactive); in the assay on CCRF-CEM, > 100 µM (inactive); in the assay on HL-60, 39 µM (inactive); in the assay on HOP-92 it was 19.1 µM (inactive); in the assay with IGROV-1 it was 76 µM (inactive); in the assay with KM12, 62.2 µM (inactive). Moreover, the GI50 in the assay with LOX IMVI was 98.4 µM (inactive); in the assay with MDA-MB-231, > 100 µM (inactive); with OVCAR-3 it was 27.9 µM (inactive); in the assay on OVCAR-5 it was > 100 µM (inactive); with PC-3, 65.9 µM (inactive); in the assay with SF-268 it was 28.8 µM (inactive). The GI50 was 41.4 µM (inactive) in the assay with SK-MEL-5; 85.7 µM (inactive) in the assay on SNB-19; 22.6 µM (inactive) in the assay with SNB-75; 41.9 µM (inactive) in the assay with SR; 71.9 µM (inactive) with T47D; 25.8 µM (inactive) with UACC-62.
In the case of `CC1CCC(O)(C(C)(C(=O)O)c2ccccc2)CC1` (stereo not given), the GI50 with BT-549 is > 100 µM (inactive); with CCRF-CEM, 82.8 µM (inactive); in the assay on HL-60, > 100 µM (inactive); in the assay with HOP-92 it was 83.9 µM (inactive); in the assay on IGROV-1 it was > 100 µM (inactive); in the assay with KM12 it was > 100 µM (inactive). In addition, the GI50 in the assay on LOX IMVI, with MDA-MB-231, in the assay on OVCAR-3, in the assay with OVCAR-5, in the assay on PC-3 and with SF-268 was > 100 µM (inactive) in each case. The GI50 in the assay with SK-MEL-5 is > 100 µM (inactive); in the assay on SNB-19, 48.3 µM (inactive); in the assay on T47D, > 100 µM (inactive); in the assay on UACC-62 it was > 100 µM (inactive).
For `O=C(O)CC1NC(/C(=C/c2ccccc2)NC(=O)c2ccccc2)OC1=O` (stereo not given), the GI50 was 19.9 µM (inactive) in the assay with BT-549; 22.6 µM (inactive) with CCRF-CEM; 11.6 µM (inactive) with HL-60; > 100 µM (inactive) in the assay with HOP-92; 25.1 µM (inactive) with IGROV-1; 17.4 µM (inactive) with KM12. For the same compound, the GI50 in the assay with LOX IMVI is 16.2 µM (inactive); with MCF7 it was 47.2 µM (inactive); in the assay on MDA-MB-231, 27.4 µM (inactive); in the assay with OVCAR-3 it was 20.6 µM (inactive); in the assay on OVCAR-5, 76 µM (inactive); in the assay with PC-3, > 100 µM (inactive). For the same compound, the GI50 is 36.3 µM (inactive) with SF-268; 16.4 µM (inactive) with SK-MEL-5; 55.3 µM (inactive) with SK-OV-3; 25.9 µM (inactive) with SNB-19; 29 µM (inactive) with SNB-75; > 100 µM (inactive) in the assay on T47D. The GI50 in the assay with UACC-62 is 22.5 µM (inactive).
Regarding `CC(C)CCC[C@@H](C)[C@H]1CC[C@H]2C3=C[C@H](OS(=O)(=O)O)[C@@]4(O)C[C@@H](O)CC[C@]4(C)[C@@]3(O)CC[C@]12C`, the GI50 with BT-549 is > 100 µM (inactive); in the assay with CCRF-CEM, 49.2 µM (inactive); in the assay on HOP-92, > 100 µM (inactive); in the assay on IGROV-1, > 100 µM (inactive); in the assay on KM12 it was 84.5 µM (inactive); in the assay with LOX IMVI it was > 100 µM (inactive). For the same compound, the GI50 in the assay on MCF7, with MDA-MB-231, in the assay with OVCAR-3, in the assay on OVCAR-5, with PC-3 and in the assay with SF-268 was > 100 µM (inactive) in each case. Further, the GI50 in the assay on SK-MEL-5 is > 100 µM (inactive); in the assay on SK-OV-3 it was > 100 µM (inactive); with SNB-19, > 100 µM (inactive); in the assay with SR, 68.5 µM (inactive); in the assay on T47D, 83.6 µM (inactive); in the assay with UACC-62 it was > 100 µM (inactive).
In the case of `O/N=C(\CC(O)(C(F)(F)F)C(F)(F)F)c1cccs1`, the GI50 in the assay with BT-549, with CCRF-CEM, in the assay with HL-60, with HOP-92, with IGROV-1 and in the assay on KM12 was > 10 µM (inactive) each time. Besides, the GI50 with LOX IMVI, in the assay on MCF7, in the assay with MDA-MB-231, with OVCAR-3, with OVCAR-5 and in the assay on PC-3 was > 10 µM (inactive) in each case. In addition, the GI50 in the assay on SF-268 is > 10 µM (inactive); in the assay on SK-MEL-5 it was > 10 µM (inactive); in the assay with SK-OV-3 it was > 10 µM (inactive); in the assay on SNB-19, > 10 µM (inactive); in the assay on SNB-75, 7.46 µM (inactive); with T47D, > 10 µM (inactive). Also, the GI50 in the assay with UACC-62 was > 10 µM (inactive).
Take `O=[N+]([O-])c1ccc2[nH]c(-c3ccc(Cl)cc3)nc2c1`: the GI50 with BT-549 was 29.7 µM (inactive); in the assay with HOP-92, 29 µM (inactive); in the assay on IGROV-1 it was 31 µM (inactive); in the assay on LOX IMVI it was 18.1 µM (inactive); in the assay on MCF7 it was 18.7 µM (inactive); in the assay with MDA-MB-231 it was 15.5 µM (inactive). The GI50 in the assay on OVCAR-3 is 30.8 µM (inactive); in the assay with PC-3, 21.4 µM (inactive); with SF-268, 19 µM (inactive); in the assay on SK-MEL-5, 16.1 µM (inactive); with SK-OV-3, 24 µM (inactive); in the assay with SNB-19, 26 µM (inactive). Besides, the GI50 is 25 µM (inactive) with SNB-75, 26.3 µM (inactive) with SR, 24.6 µM (inactive) with T47D and 21.2 µM (inactive) with UACC-62.
`CCOC(=O)CCCN`: the GI50 in the assay with BT-549, in the assay with CCRF-CEM, in the assay on HL-60, in the assay on HOP-92, with IGROV-1 and in the assay with KM12 was > 100 µM (inactive) in each case. The GI50 in the assay on LOX IMVI, with MCF7, in the assay on MDA-MB-231, with OVCAR-3, in the assay on OVCAR-5 and in the assay on PC-3 was > 100 µM (inactive) throughout. Further, the GI50 in the assay on SF-268, in the assay with SK-MEL-5, in the assay with SK-OV-3, in the assay with SNB-19, with SNB-75 and in the assay with T47D was > 100 µM (inactive) in each case.
Consider `CN(C)CCCNc1ncnc2[nH]cnc12`, for which the GI50 in the assay with BT-549 was > 100 µM (inactive); in the assay with CCRF-CEM, > 100 µM (inactive); with HOP-92, 38.1 µM (inactive); in the assay with IGROV-1, > 100 µM (inactive); in the assay on KM12, > 100 µM (inactive); in the assay with LOX IMVI, > 100 µM (inactive). In addition, the GI50 in the assay with MCF7, with MDA-MB-231, with OVCAR-3, with OVCAR-5, in the assay on PC-3 and with SF-268 was > 100 µM (inactive) in each case. Moreover, the GI50 with SK-MEL-5, with SK-OV-3, with SNB-19, in the assay on T47D and in the assay with UACC-62 was > 100 µM (inactive) each time.
Take `C[C@H]1[C@H](C)N(Cc2ccccc2)P(=O)(C(O)/C=C/c2ccccc2)N1Cc1ccccc1` (stereo not given in full): the GI50 with BT-549 was 12 µM (inactive); in the assay with HOP-92, 7.18 µM (inactive); in the assay with IGROV-1, 8.32 µM (inactive); with KM12, 8.91 µM (inactive); with LOX IMVI, 6.76 µM (inactive); in the assay on MCF7, 8.3 µM (inactive). Further, the GI50 in the assay on MDA-MB-231 is 6.12 µM (inactive); in the assay with OVCAR-5 it was 6.61 µM (inactive); with PC-3, 5.37 µM (inactive); in the assay with SF-268 it was 6.84 µM (inactive); with SK-MEL-5 it was 4.55 µM (inactive); in the assay with SK-OV-3 it was 9.68 µM (inactive). For the same compound, the GI50 is 12 µM (inactive) in the assay with SNB-19; 6.95 µM (inactive) in the assay on SNB-75; 6.55 µM (inactive) with SR; 6.27 µM (inactive) with T47D; 4.18 µM (inactive) in the assay with UACC-62.
